Experimental data as given in US11452758B2, “Antimicrobial peptide derived from LL37 peptide and uses thereof” (INDUSTRY-ACADEMIC COOPERATION FOUNDATION, CHOSUN UNIVERSITY, priority 2018, dated 2022).
Read-outs that look alike come from different tables or passages of the source. Where a SMILES comes first, the peptide text is derived from it.

How the values were obtained:
Assay type in all cases: cell-based
mouse erythrocytes = test: Hemolytic activity; conditions: 1 hour at 37° C.
Method: To compare the cytotoxicity among the peptides that are produced by the method of Example 1, erythrocyte hemolytic activity of the synthesized peptide was measured.
Specifically, erythrocytes of a mouse (Balb/c, 6 week old, female) were diluted in PBS (pH 7.0) to have concentration of 8%, and then subjected to a treatment with LL37, LL37-1, LL37-2, LL37-3 or LL37-4, to have concentration of 1.56, 3.13, 6.25, 12.5, 25.0, 50.0 or 100.0 μM/well for each followed by a reaction for 1 hour at 37° C. After that, the amount of hemoglobin contained in a supernatant collected by centrifuge at 1,000×g was determined by measuring the absorbance at a wavelength of 414 nm. As a control group to be used as a reference for cell disruption level, the supernatant collected by a treatment with 1% Triton X-100 (Sigma, USA) and a reaction for 1 hour at 37° C. was used to measure the absorbance. By setting the resulting absorbance value at 100% of the hemolytic activity, hemolysis of each peptide was calculated using the following formula. Erythrocyte disrupting ability (%)=(Absorbance A−Absorbance B)/(Absorbance C−Absorbance B)×100 (in the above formula, Absorbance A indicates the absorbance of a reaction solution treated with each peptide, in which the absorbance is measured at a wavelength of 414 nm; Absorbance B indicates the absorbance of a reaction solution treated with PBS, in which the absorbance is measured at a wavelength of 414 nm; and Absorbance C indicates the absorbance of a reaction solution treated with 1% Triton X-100, in which the absorbance is measured at a wavelength of 414 nm).

[1] = system: normal human fibroblast cell line (Hs27); test: Cytotoxicity in normal cell line (MTT); conditions: Hs27; peptide 32 μM; 24 hours; MTT
How it was run: (§1)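 HaCaT and Hs27 cells (1×10^4/well, DMEM with 10% FBS) were seeded 24 h, then exposed 24 h to peptides at 0.5–32 μM. Viability was measured by MTT reduction (1 h), with DMSO-dissolved formazan read at 570 nm.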

[2] = system: normal human keratinocyte cell line (HaCaT); test: Cytotoxicity in normal cell line (MTT); conditions: HaCaT; peptide 32 μM; 24 hours; MTT
How it was run: as §1

[3] = system: Acinetobacter baumannii KCTC 2508; conditions: A. baumannii KCTC 2508
Method: To determine the antimicrobial activity of peptides prepared by the method of above Example 1 in the presence of different ions in living body, minimal inhibitory concentration (MIC), i.e., lowest concentration of a peptide not allowing bacterial cell division, was measured.
Specifically, among the bacterial strains that are described in the above Table 2, Acinetobacter baumannii KCTC 2508 cells were cultured to a mid-log phase in MHB (Mueller Hinton Broth) medium, and, after diluting LL37-2 or LL37-4 peptide synthesized in the above Example 1 in a solution containing different kind of ions (sodium chloride, calcium chloride, magnesium chloride, and iron chloride) at different concentration, it was added to the plate in an amount of 50 μl per plate. After that, the cultured cells were diluted to cell concentration of 2×10^5 cells/50 μl, inoculated to a microtiter plate (NUNC, USA), and then cultured again for 18 hours at 37° C. By using a microtiter plate reader (Merck Elisa reader, Germany), absorbance at wavelength of 600 nm was measured and MIC value was determined for each strain. As a control, the MIC values of LL37, LL37-2 and LL37-4 for Acinetobacter baumannii KCTC 2508, which are shown in the above Table 3, were used.

Compound: CC[C@H](C)[C@H](NC(=O)[C@H](CCCNC(=N)N)NC(=O)[C@H](CCC(N)=O)NC(=O)[C@@H](NC(=O)[C@@H](NC(=O)[C@H](CCCNC(=N)N)NC(=O)[C@H](CCCCN)NC(=O)[C@H](Cc1ccccc1)NC(=O)[C@H](CCCCN)NC(=O)[C@@H](N)CCCCN)[C@@H](C)CC)C(C)C)C(=O)N[C@@H](CCCCN)C(=O)N[C@@H](CC(=O)O)C(=O)N[C@@H](Cc1ccccc1)C(=O)N[C@@H](CC(C)C)C(=O)N[C@@H](CCCNC(=N)N)C(=O)N[C@@H](CC(N)=O)C(N)=O [LL37-2, KKFKRIVQRIKDFLRN-NH2] (H-KKFKRIVQRIKDFLRN-NH2)
- Erythrocyte disrupting ability (mouse erythrocytes; peptide 1.56 μM): 0%
- Erythrocyte disrupting ability (mouse erythrocytes; peptide 3.13 μM): 0%
- Erythrocyte disrupting ability (mouse erythrocytes; peptide 6.25 μM): 1%
- Erythrocyte disrupting ability (mouse erythrocytes; peptide 12.5 μM): 1%
- Erythrocyte disrupting ability (mouse erythrocytes; peptide 25 μM): 1%
- Erythrocyte disrupting ability (mouse erythrocytes; peptide 50 μM): 1%
- Cell survival ability [1]: 97%
- Cell survival ability [2]: 107%
- Minimal inhibitory concentration of antimicrobial peptide ([3]; Calcium chloride 1.25 mM): 4 µM
- Minimal inhibitory concentration of antimicrobial peptide ([3]; Calcium chloride 2.5 mM): 4 µM
- Minimal inhibitory concentration of antimicrobial peptide ([3]; Calcium chloride 5 mM): 8 µM
- Minimal inhibitory concentration of antimicrobial peptide ([3]; Iron chloride 2 mM): 4 µM
- Minimal inhibitory concentration of antimicrobial peptide ([3]; Iron chloride 4 mM): 4 µM
- Minimal inhibitory concentration of antimicrobial peptide ([3]; Iron chloride 8 mM): 4 µM
- Minimal inhibitory concentration of antimicrobial peptide ([3]; Magnesium chloride 0.5 mM): 4 µM
- Minimal inhibitory concentration of antimicrobial peptide ([3]; Magnesium chloride 1 mM): 4 µM
- Minimal inhibitory concentration of antimicrobial peptide ([3]; Magnesium chloride 2 mM): 4 µM
- Minimal inhibitory concentration of antimicrobial peptide ([3]; Sodium chloride 50 mM): 8 µM
- Minimal inhibitory concentration of antimicrobial peptide ([3]; Sodium chloride 100 mM): 16 µM
- Minimal inhibitory concentration of antimicrobial peptide ([3]; Sodium chloride 150 mM): 32 µM
